Data on 2 molecules can be found in article PMC3268775 (Journal of the American Chemical Society, 2012).

A short description of data set [1]: pKa of [Re]–F3Y–βC19. The class given is physicochemical. As to conditions: pH 8.3.
The conditions of data set [2]: pH 8.3; cited from earlier work.
Data set [3] has as its system α2: β2 complex. As to conditions: cited from earlier work.

For `N[C@@H](Cc1c(F)cc(O)c(F)c1F)C(=O)O` [F3Y, 2,3,6-trifluorotyrosine], the F3Y deprotonated in data set [1] was ~ 94%. Also, in data set [2], the “reduction potential of F3Y above tyrosine” value is listed as ~ 180 mV.

B1: wild type α2: β2 complex: E. coli class Ia ribonucleotide reductase (protein, UniProt P00452 1-761; P69924 2-376, looked up)
Ribonucleoside-diphosphate … 1: MNQNLLVTKRDGSTERINLDKIHRVLDWAAEGLHNVSISQVELRSHIQFYDGIKTSDIHETIIKAAADLISRDAPDYQYLAARLAIFHLRKKAYGQFEPPALYDHVVKMVEMGKYDNHLLEDYTEEEFKQMDTFIDHDRDMTFSYAAVKQLEGKYLVQNRVTGEIYESAQFLYILVAACLFSNYPRETRLQYVKRFYDAVSTFKISLPTPIMSGVRTPTRQFSSCVLIECGDSLDSINATSSAIVKYVSQRAGIGINAGRIRALGSPIRGGEAFHTGCIPFYKHFQTAVKSCSQGGVRGGAATLFYPMWHLEVESLLVLKNNRGVEGNRVRHMDYGVQINKLMYTRLLKGEDITLFSPSDVPGLYDAFFADQEEFERLYTKYEKDDSIRKQRVKAVELFSLMMQERASTGRIYIQNVDHCNTHSPFDPAIAPVRQSNLCLEIALPTKPLNDVNDENGEIALCTLSAFNLGAINNLDELEELAILAVRALDALLDYQDYPIPAAKRGAMGRRTLGIGVINFAYYLAKHGKRYSDGSANNLTHKTFEAIQYYLLKASNELAKEQGACPWFNETTYAKGILPIDTYKKDLDTIANEPLHYDWEALRESIKTHGLRNSTLSALMPSETSSQISNATNGIEPPRGYVSIKASKDGILRQVVPDYEHLHDAYELLWEMPGNDGYLQLVGIMQKFIDQSISANTNYDPSRFPSGKVPMQQLLKDLLTAYKFGVKTLYYQNTRDGAEDAQDDLVPSIQDDGCESGACKI
Ribonucleoside-diphosphate … 2: AYTTFSQTKNDQLKEPMFFGQPVNVARYDQQKYDIFEKLIEKQLSFFWRPEEVDVSRDRIDYQALPEHEKHIFISNLKYQTLLDSIQGRSPNVALLPLISIPELETWVETWAFSETIHSRSYTHIIRNIVNDPSVVFDDIVTNEQIQKRAEGISSYYDELIEMTSYWHLLGEGTHTVNGKTVTVSLRELKKKLYLCLMSVNALEAIRFYVSFACSFAFAERELMEGNAKIIRLIARDEALHLTGTQHMLNLLRSGADDPEMAEIAEECKQECYDLFVQAAQQEKDWADYLFRDGSMIGLNKDILCQYVEYITNIRMQAVGLDLPFQTRSNPIPWINTWLVSDNVQVAPQEVEVSSYLVGQIDSEVDTDDLSNFQL
Turning to B1, in data set [3], the baseline catalytic turnover was 2 to 10 s⁻¹.
